Results as given in the METLIN SMRT retention time set (Domingo-Almenara et al. 2019).

Assay: gradient 5% acetonitrile 3 min, to 50% in 2 min, to 85% in 15 min, held 3 min, 100 µL/min
Conditions: column: Zorbax Extend-C18 2.1 x 50 mm; eluents: water / acetonitrile, 0.1% formic acid
Outline: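 The mobile phases were water and acetonitrile, each with 0.1% formic acid, pumped at 100 μL/min through a Zorbax Extend-C18 column (2.1 × 50 mm, 1.8 μm). Pure standards were injected as mixtures of ~100 molecules and detected by a quadrupole time-of-flight mass spectrometer in positive and negative ionization mode. Retention time came from computationally picked adduct peaks, each inspected by hand.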

| RP-LC retention time [s] | Structure (SMILES) |
| --- | --- |
| 662 | COc1ccc(S(=O)(=O)N2CCC[C@@H]2C(=O)NCc2csc(C)n2)cc1OC |
| 802 | COc1cccc(-c2noc(C3CCCN3C(=O)NC(C)C)n2)c1 (stereo unspecified) |
| 636 | CCn1cnc2ccc(-c3noc(C(C)NC(=O)c4ccccc4)n3)cc21 (stereo unspecified) |
| 1260 | Cc1cc(C)n(-c2nc(C)c(C(=O)Nc3cccc(C(F)(F)F)c3)s2)n1 |
| 680 | Cc1cc(C(=O)NC2CCCC2)nn1C |
| 907 | Cn1c(=O)c(N2CCC(NC(=O)Nc3ccc(Cl)cc3)CC2)nc2cccnc21 |
| 966 | O=C(CN1C(=O)C2CCCCN2c2ccc(S(=O)(=O)N3CCCC3)cc21)NCCc1ccccc1 (stereo unspecified) |
| 632 | Cc1ccc(C(=O)N2CCOc3ccc(N(C)C)cc3C2)s1 |
| 683 | O=C(NCCc1ccccc1)NCCn1c(-c2ccccc2)nc2cccnc21 |
| 558 | CCN1CCC2(CC1)OC(=O)C(C)=C2C(=O)NCc1ccc(C)cc1 |
| 881 | Cc1ccc2c(c1)NC1(CCN(S(=O)(=O)c3ccccc3F)CC1)c1cccn1-2 |
| 670 | CC(=O)Nc1ccc(NC(=O)Cn2ccn3nc(-c4ccc(F)cc4)c(CO)c3c2=O)cc1 |
| 913 | COc1cc(NC(=O)Nc2nccn(-c3cc(C)cc(C)c3)c2=O)cc(OC)c1 |
| 747 | Cc1cc(S(=O)(=O)N2CC(Cc3nncn3C3CCCC3)C2)ccc1F |
| 666 | COc1ccc(C(=O)N2C[C@@H]3C[C@H]2C[C@@H]3NC(=O)c2cccs2)cn1 |
| 637 | Cc1noc(C)c1CN1CC2(CCCCC2)CC1COc1ccncc1 (stereo unspecified) |
| 938 | CCc1cc(=O)n(CC(=O)Nc2cc(C)on2)c(-c2ccccc2)n1 |
| 972 | Cc1ccc(-c2nc(Cn3cccc3C(=O)N3CCCC3)no2)cc1 |
| 1190 | Cn1c(=O)oc2cc(-c3noc(-c4cccc(Br)c4)n3)ccc21 |
| 759 | CCC(Oc1ccc(=O)n(-c2ccc(F)cc2)n1)C(=O)NCCc1ccco1 (stereo unspecified) |
| 661 | COc1ccc(N2CCN(C(=O)C3CCCN(c4nnc5cccc(C)n45)C3)CC2)cc1 (stereo unspecified) |
| 835 | COCCNC(=O)C1CCN(c2nc3ccc(-c4ccc(F)cc4)nc3s2)CC1 |
| 1210 | COC(=O)c1ccc2c(=O)n(-c3ccccc3)c(N3CCC(C)CC3)nc2c1 |

| RP-LC retention time [s] | Structure (SMILES) |
| --- | --- |
| 731 | CN(Cc1ccccc1)c1ncc(C(=O)Nc2ccccc2)c(N)n1 |
| 637 | COCc1noc(C2CN(C(=O)c3cn[nH]c3)CC23CCCC3)n1 (stereo unspecified) |
| 708 | O=C(CN1C(=O)NC2(CCCCC2)C1=O)Nc1ccc2c(c1)OCCO2 |
| 798 | Cc1ccc(NC(=O)CN2C(=O)NC3(CCCCC3)C2=O)cc1F |
| 875 | O=C(CNC(=O)C(c1ccccc1)c1ccccc1)NCC(=O)N1CCCc2ccccc21 |
| 566 | c1ccc(-c2nnc(CN3CCCCC3)o2)cc1 |
| 889 | O=C(CN1C(=O)C2CCCCN2c2ccc(C(=O)N3CCCCC3)cc21)NC1CCCCC1 (stereo unspecified) |
| 964 | Fc1ccc(N2CCN(Cc3nc(-c4ccccc4)no3)CC2)cc1 |
| 880 | CCC(=O)N1N=C(c2cccs2)CC1c1cccs1 (stereo unspecified) |
| 723 | CCC(C(=O)N1CCN(c2ccc(-c3ccc4c(c3)OCO4)nn2)CC1)c1ccccc1 (stereo unspecified) |
| 677 | O=C(Nc1ccc(F)cc1F)Nc1c(-c2ccc(F)cc2)nc2ccccn12 |
| 573 | COc1ccc(CN(C)Cc2cc(=O)n3ccccc3n2)cc1OC |
| 612 | Cc1ccc(Cl)cc1NC(=O)N1CCc2nc[nH]c2C1 |
| 751 | COCc1nncn1C1CCN(S(=O)(=O)c2cccc(OC)c2)CC1 |
| 621 | Cc1nc(OCC(=O)NCc2ccccc2)c2ccccc2n1 |
| 881 | CCOCCOC1CCN(S(=O)(=O)c2cccc(OC)c2)CC1 |
| 686 | Cc1cc(NC(=O)C2CCCN(c3ccc(-c4ccc(Cl)cc4)nn3)C2)no1 (stereo unspecified) |
| 1070 | Cn1nccc1-c1cccc(-c2noc(-c3ccccc3F)n2)c1 |
| 747 | Clc1ccc2nc(Nc3ncccn3)nc(-c3ccccc3)c2c1 |
| 946 | Cc1ccc(Nc2nc(-c3ccc(C)cc3)c(CC(=O)O)s2)cc1 |
| 639 | NC(=O)C1CCN(C(=O)Cn2c(=O)nc(-c3ccccc3)c3cc(Cl)ccc32)CC1 |
| 965 | Cc1ccc(C(=O)COC(=O)c2ccc3nc(C)c(C)nc3c2)cc1 |
| 746 | O=C(O)C1CCc2sc(C(=O)N3CCCCCC3)cc2C1 (stereo unspecified) |

| RP-LC retention time [s] | Structure (SMILES) |
| --- | --- |
| 863 | COCCCNC(=O)c1ccc(-n2nc(Sc3ccc(Cl)cc3)ccc2=O)cc1 |
| 1190 | O=S(=O)(Nc1ccc(F)c(F)c1)c1ccccc1-c1nc(-c2ccccc2)no1 |
| 1160 | CCOc1ccc(NC(=O)CSc2cc(N3CCN(c4ccc(OC)cc4)CC3)ncn2)cc1 |
| 633 | O=C(NC1CCS(=O)(=O)C1)C1CCN(C(=O)C2CC(=O)N(c3ccc(F)cc3)C2)CC1 (stereo unspecified) |
| 862 | Cc1cc(=O)n(CC(=O)Nc2ccc(Br)cc2F)c(N(C)Cc2ccccc2)n1 |
| 645 | CN(CCCNC(=O)CN1C(=O)CCn2nc(-c3cn(C)c4ccccc34)cc21)Cc1ccccc1 |
| 1030 | Cc1ccc(CNC(=O)C2(C)CCN(S(=O)(=O)c3cc(C)cc(C)c3)CC2)cc1 |
| 834 | COc1cc(/C=C2\CCCN([C@@H](C)c3ccc(F)cc3)C2=O)ccc1-n1cnc(C)c1 |
| 587 | O=C1COc2cc(S(=O)(=O)N3CCCC3C(=O)NCCN3CCCCCC3)c(Cl)cc2N1 (stereo unspecified) |
| 813 | CC(=O)n1nc(-c2ccc(C)c(C)c2)nc1N |
| 1020 | CC1=NS(=O)(=O)N(C)C=C1C(=O)OCc1nc(-c2cccc(C)c2)no1 |
| 1030 | CCN(Cc1ccccc1)c1ccc(-c2noc(CN3CCSCC3)n2)cn1 |
| 800 | O=C(CCCN1C(=O)C2C3C=CC(C3)C2C1=O)N1CCN(c2ccc(F)cc2)CC1 (stereo unspecified) |
| 939 | Cc1nc(-c2csc(S(=O)(=O)N3CCCC(C(=O)Nc4ccc(C)c(C)c4)C3)c2)no1 (stereo unspecified) |
| 1170 | Cc1ccc(-c2coc(-c3ccc(NC(=O)c4ccco4)cc3)n2)c(C)c1 |
| 652 | CCc1nc2c(c(=O)n1CC(=O)Nc1cccc(OC)c1)CN(Cc1ccccc1)CC2 |
| 689 | COC(=O)c1cnc2nc(C)ccc2c1Nc1cc(F)ccc1C |
| 594 | CCOC(=O)c1ccc(NC(=O)Cn2cnc3ccccc32)cc1 |
| 757 | CC1(C)CC(=O)c2cn(-c3ccc(Cl)cc3)c(=O)c(C(=O)N3CCOCC3)c2C1 |
| 874 | O=C(C1CCN(c2nc(-c3ccc(Cl)cc3)no2)CC1)N1CCOCC1 |
| 935 | COc1ccc(OC)c(NC(=O)c2nc(C)oc2C)c1 |
| 842 | Cc1noc2nc(C)n(CC(=O)NC(C)CCc3ccccc3)c(=O)c12 (stereo unspecified) |
| 625 | Cc1cc(N2CCOCC2)nc(N2CCN(C(=O)C3CCCCC3)CC2)n1 |

| RP-LC retention time [s] | Structure (SMILES) |
| --- | --- |
| 897 | Cn1cccc1C(=O)N1CCC(COc2ccc(C(=O)N3CCCCC3)cc2)CC1 |
| 773 | CCOc1ccccc1N(C)C(=O)Cc1c(C(=O)O)c(C)cn1C |
| 563 | Cc1cc(C(=O)NCCN2CCN(C(=O)c3cccs3)CC2)c(C)o1 |
| 944 | Cc1ccc(-c2nc(NC(=O)Cc3csc(C)n3)sc2C)cc1 |
| 720 | COc1cc(-c2nc3ccc(Cl)cn3c2Nc2ccccc2C)ccc1O |
| 991 | CS(=O)(=O)N1CCC(C(=O)N2CCCc3ccccc32)Oc2ccc(Cl)cc21 (stereo unspecified) |
| 766 | CN(Cc1ccccc1)C(=O)c1cccc(NC(=O)[C@H]2[C@@H]3C[C@@H]4[C@H]2C(=O)O[C@@H]4C3)c1 |
| 675 | CCCNC(=O)C1CCN(c2ccc(SCC(=O)Nc3cccc(C(=O)OCC)c3)nn2)CC1 |
| 827 | CCn1ccc(C(=O)N2CCN(c3cc(-c4ccc(Cl)cc4)[nH]n3)CC2)n1 |
| 719 | Cc1ccc2c(c1)NC(=O)c1cc(NC(=O)c3ccno3)ccc1O2 |
| 663 | CSc1ccc(CNC(=O)c2cn3c(n2)COCC3)cc1 |
| 803 | Cc1cc(O)c(C(C[N+](=O)[O-])c2ccc(Cl)cc2Cl)c(=O)o1 (stereo unspecified) |
| 691 | O=C(CCc1c(-c2ccccc2)nc2ccccn12)Nc1ccccc1C(F)(F)F |
| 728 | CCOC(=O)N1CCC(c2nnc(-c3ccco3)s2)CC1 |
| 922 | Cc1ccc(C2CCCN2C(=O)Nc2ccc3c(c2)OCCO3)cc1 (stereo unspecified) |
| 800 | Nc1nc(-c2ccccc2)nn1C(=O)C1CC1 |
| 873 | Cc1csc(-c2cc(S(=O)(=O)NC(C)C)cn2CC(=O)N2CCCCC2)n1 |
| 616 | C=CCn1c(SCCC(=O)O)nnc1-c1cccs1 |
| 667 | O=C(CCc1c(-c2ccc(Br)cc2)nc2ccccn12)NC1CCCC1 |
| 739 | CCC(C)NC(=O)c1ccc(CN2CCN(Cc3ccc(F)cc3)C(=O)C2=O)cc1 (stereo unspecified) |
| 584 | Cc1ncc2n1CCN(S(=O)(=O)c1ccccc1)C2 |

| Structure (SMILES) | RP-LC retention time [s] |
| --- | --- |
| O=C(Cn1c(Cc2ccccc2)nc2ccccc21)N1CCCCC1 | 667 |
